Earlier results on five compounds are cited in patent US20200080027A1, “ADVANCED NOVEL ECO-FRIENDLY COMPOSITIONS” (priority 2015, published 2020).

The test system of one data set is normal volunteers. The following applies: 15 g/day for 10 days, 18 normal volunteers.
For data set [1] the following is noted: skin contact.
The subject of a further data set is human. As to conditions: human consumption.

Consider Span 80, for which the “water solubility” value is “insoluble in water”.

`O=C([O-])c1ccccc1.[Na+]` [Sodium benzoate]: the “doses with no adverse effects in humans” value in the data set on humans is reported as 647-825 mg/kg of body weight per day.

For the compound Xanthan gum, the laxative effect result in the data set with normal volunteers was “highly efficient laxative”.

As for `[K+].[OH-]` [Potassium hydroxide], the “concentration of solution that is corrosive” value in data set [1] was “higher than 2%”.

`C/C=C/C=C/C(=O)[O-].[K+]` [Potassium sorbate]: for the setting “at 20° C.”, the solubility in water is 58.2%. For the same compound, the “maximum acceptable daily intake” value in the data set with human is 25 mg/kg. Moreover, in the data set with human blood cells, the “genotoxicity / mutagenicity in vitro” value is “both genotoxic and mutagenic”. The carcinogenic effects entry in the data set with rats is “not been found to have any carcinogenic effects”.
